Reference: EP2502917A1, “Solid state crystalline forms of 4-(2-ethyl-5-fluoro-2,3-dihydro-1H-inden-2-yl)-1H-imidazole” (Santhera Pharmaceuticals (Schweiz) AG, priority 2011, dated 2012)

Columns and labels:
[1] = Aqueous solubility by UV/Vis spectroscopy (extinction at 270 nm) of the filtered suspension; format: physicochemical; conditions: remaining solid is form A, aliquot diluted by a factor of 500, extinction at 270 nm
Experimental: A suspension of 118 mg fipamezole hydrochloride form B in 1 mL H2O is stirred at room temperature for two days. […] An aliquot of the solution is diluted with water by a factor of 500 and analyzed by UVNis spectroscopy.
A suspension of 97 mg fipamezole hydrochloride form B* in 0.5 mL H2O is stirred at room temperature for two days. […] An aliquot of the solution is diluted with water by a factor of 500 and analyzed by UVNis spectroscopy.
A suspension of 110 mg fipamezole hydrochloride form D in 0.5 mL H2O is stirred at room temperature for two days. […] An aliquot of the solution is diluted with water by a factor of 500 and analyzed by UVNis spectroscopy.

[2] = Thermodynamic stability of polymorphs (differential scanning calorimetry); format: physicochemical; conditions: enantiotropic pair: form A is the low temperature form, form D the high temperature form
Experimental: Both forms can be converted into each other, accordingly, forms A and D represent an enantiotropic pair of polymorphs whereby form A is the low temperature form and form D the high temperature form. Differential Scanning Calorimetry (DSC): DSC measurements were carried out on a Perkin Elmer DSC-7. The samples were placed into gold crucibles that were sealed under nitrogen. The measurements were performed with a heating rate of 10 or 20 °C min^-1 over the temperature range from -50 °C to about 200°C.

aqueous solubility ([1]; suspension of form B* in H2O stirred at room temperature for two days): about 43 g/L
aqueous solubility ([1]; suspension of form D in H2O stirred at room temperature for two days): about 46 g/L
solubility at 2 days ([1]; water, thermodynamic from solid, suspension of form B in H2O stirred at room temperature for two days): ~46 mg/mL
thermodynamic stability [2]: high thermodynamic stability
Structure (SMILES): CCC1(c2c[nH]cn2)Cc2ccc(F)cc2C1.Cl (stereo not shown) [form A, 4-(2-Ethyl-5-fluoro-2,3-dihydro-1H-inden-2-yl)-1H-imidazole hydrochloride]
